# Laboratory results published in patent US20040127413A1, “Enteric keto acid and amino acid salts and their use for preparing medicines” (priority 2001, published 2004).
# Marks after values point to notes of the source that are not given here.
# Test system: Male Sprague-Dawley rats
# Assay: Colic distension model (visceral pain model in the rat), abdominal cramps counted
compound,measurement,setting,value
"CCC(=O)C(=O)O.NC(N)=NCCC[C@H](N)C(=O)O [Arginine alpha-ketobutyrate, arginine alpha-ketobutyrate]","Number of abdominal cramps, Average",10 mg/kg p.o. pH 1,15
same,"Number of abdominal cramps, Average",10 mg/kg p.o. pH 6,9*
same,Activity in the colon distension model (in words),p.o. at pH 1,inactive
same,Activity in the colon distension model (in words),p.o. at pH 6 (neutral),active
